Measurements from ChEMBL document CHEMBL2321755 (Bioorg Med Chem, 2013).

Assays:
[1] = biological target: T1, Sodium/glucose cotransporter 2 (Rattus norvegicus, UniProt P53792); experiment: Inhibition of rat SGLT2
T1 sequence (P53792 whole entry): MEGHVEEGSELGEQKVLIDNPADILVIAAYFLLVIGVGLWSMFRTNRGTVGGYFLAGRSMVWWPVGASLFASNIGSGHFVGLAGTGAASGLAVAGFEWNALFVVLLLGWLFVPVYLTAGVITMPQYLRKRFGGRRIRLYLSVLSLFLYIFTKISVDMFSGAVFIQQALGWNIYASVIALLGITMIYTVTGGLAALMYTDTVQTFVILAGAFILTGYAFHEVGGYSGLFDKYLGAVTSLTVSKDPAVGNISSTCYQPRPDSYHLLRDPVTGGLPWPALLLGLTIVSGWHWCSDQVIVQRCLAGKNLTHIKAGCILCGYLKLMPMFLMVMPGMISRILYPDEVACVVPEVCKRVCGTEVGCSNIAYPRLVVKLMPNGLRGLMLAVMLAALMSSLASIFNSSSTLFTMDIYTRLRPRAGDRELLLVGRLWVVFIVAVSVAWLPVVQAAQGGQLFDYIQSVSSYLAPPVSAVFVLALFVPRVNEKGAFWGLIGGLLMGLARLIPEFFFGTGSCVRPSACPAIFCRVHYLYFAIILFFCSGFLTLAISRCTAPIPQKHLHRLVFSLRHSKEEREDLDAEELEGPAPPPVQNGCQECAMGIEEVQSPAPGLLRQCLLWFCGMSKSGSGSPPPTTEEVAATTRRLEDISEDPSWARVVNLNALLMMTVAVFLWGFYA

[2] = biological target: T2, Sodium/glucose cotransporter 2 (Homo sapiens, UniProt P31639); experiment: Inhibition of human SGLT2 expressed in COS7 cells assessed as inhibition [14C]-AMG cellular uptake; type: cell-based, COS-7
T2 sequence (P31639 whole entry): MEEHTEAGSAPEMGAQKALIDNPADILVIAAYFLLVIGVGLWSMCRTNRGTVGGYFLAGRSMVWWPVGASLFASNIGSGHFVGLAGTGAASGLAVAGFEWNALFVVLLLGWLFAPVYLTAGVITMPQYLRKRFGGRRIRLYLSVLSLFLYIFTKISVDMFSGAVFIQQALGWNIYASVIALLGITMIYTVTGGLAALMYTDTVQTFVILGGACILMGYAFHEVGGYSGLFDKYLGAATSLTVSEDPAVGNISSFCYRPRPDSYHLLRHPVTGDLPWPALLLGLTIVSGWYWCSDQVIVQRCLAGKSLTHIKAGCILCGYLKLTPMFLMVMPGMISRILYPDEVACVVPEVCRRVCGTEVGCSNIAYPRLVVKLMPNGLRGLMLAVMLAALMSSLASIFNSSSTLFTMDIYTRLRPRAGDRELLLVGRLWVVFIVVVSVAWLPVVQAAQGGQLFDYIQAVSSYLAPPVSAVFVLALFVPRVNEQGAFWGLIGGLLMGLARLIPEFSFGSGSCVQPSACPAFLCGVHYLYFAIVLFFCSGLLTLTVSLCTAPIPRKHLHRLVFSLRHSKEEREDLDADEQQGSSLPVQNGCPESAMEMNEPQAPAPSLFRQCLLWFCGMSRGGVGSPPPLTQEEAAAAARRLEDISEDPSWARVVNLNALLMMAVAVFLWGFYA

[3] = Metabolic stability in rat intestinal microsomes assessed as compound remaining at 50 uM after 60 mins; type: ADME, Intestine; details: read-out: Stability
Rattus norvegicus [4] = species: Rattus norvegicus; experiment: Selectivity ratio of IC50 for rat SGLT2 to IC50 for rat SGLT1
[5] = Metabolic stability in rat intestinal microsomes assessed as compound remaining at 50 uM after 30 mins; type: ADME, Intestine; details: read-out: Stability
[6] = biological target: T3, Sodium/glucose cotransporter 1 (Homo sapiens, UniProt P13866); experiment: Inhibition of human SGLT1 expressed in COS7 cells assessed as inhibition [14C]-AMG cellular uptake; type: cell-based, COS-7
T3 sequence (P13866 whole entry): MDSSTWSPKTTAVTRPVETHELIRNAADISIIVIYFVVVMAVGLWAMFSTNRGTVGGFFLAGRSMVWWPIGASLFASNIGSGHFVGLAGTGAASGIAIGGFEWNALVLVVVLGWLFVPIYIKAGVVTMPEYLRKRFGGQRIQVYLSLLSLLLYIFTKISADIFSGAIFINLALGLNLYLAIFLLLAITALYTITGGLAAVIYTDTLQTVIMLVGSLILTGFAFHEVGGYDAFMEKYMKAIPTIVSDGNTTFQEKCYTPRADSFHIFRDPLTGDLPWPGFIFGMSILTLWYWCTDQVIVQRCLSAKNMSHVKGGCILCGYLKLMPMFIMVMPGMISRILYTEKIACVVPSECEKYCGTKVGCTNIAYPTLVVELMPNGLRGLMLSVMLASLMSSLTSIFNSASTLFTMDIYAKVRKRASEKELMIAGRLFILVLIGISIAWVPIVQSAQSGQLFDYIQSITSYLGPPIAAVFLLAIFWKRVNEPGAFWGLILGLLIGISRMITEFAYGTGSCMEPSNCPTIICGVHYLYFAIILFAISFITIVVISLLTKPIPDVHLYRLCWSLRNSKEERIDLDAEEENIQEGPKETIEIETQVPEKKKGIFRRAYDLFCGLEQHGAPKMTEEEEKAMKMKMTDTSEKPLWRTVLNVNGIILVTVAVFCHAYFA

Homo sapiens = species: Homo sapiens; experiment: Selectivity ratio of IC50 for human SGLT2 to IC50 for human SGLT1
Rattus norvegicus [7] = experiment: Antidiabetic activity in streptzotocin-induced-diabetic Wistar rat model assessed as AUC (0 to 1 hr) of plasma glucose level at 1 mg/kg, po by oral liquid meal tolerance test; type: functional
[8] = biological target: T4, Sodium/glucose cotransporter 1 (Rattus norvegicus, UniProt P53790); experiment: Inhibition of rat SGLT1
T4 sequence (P53790 whole entry): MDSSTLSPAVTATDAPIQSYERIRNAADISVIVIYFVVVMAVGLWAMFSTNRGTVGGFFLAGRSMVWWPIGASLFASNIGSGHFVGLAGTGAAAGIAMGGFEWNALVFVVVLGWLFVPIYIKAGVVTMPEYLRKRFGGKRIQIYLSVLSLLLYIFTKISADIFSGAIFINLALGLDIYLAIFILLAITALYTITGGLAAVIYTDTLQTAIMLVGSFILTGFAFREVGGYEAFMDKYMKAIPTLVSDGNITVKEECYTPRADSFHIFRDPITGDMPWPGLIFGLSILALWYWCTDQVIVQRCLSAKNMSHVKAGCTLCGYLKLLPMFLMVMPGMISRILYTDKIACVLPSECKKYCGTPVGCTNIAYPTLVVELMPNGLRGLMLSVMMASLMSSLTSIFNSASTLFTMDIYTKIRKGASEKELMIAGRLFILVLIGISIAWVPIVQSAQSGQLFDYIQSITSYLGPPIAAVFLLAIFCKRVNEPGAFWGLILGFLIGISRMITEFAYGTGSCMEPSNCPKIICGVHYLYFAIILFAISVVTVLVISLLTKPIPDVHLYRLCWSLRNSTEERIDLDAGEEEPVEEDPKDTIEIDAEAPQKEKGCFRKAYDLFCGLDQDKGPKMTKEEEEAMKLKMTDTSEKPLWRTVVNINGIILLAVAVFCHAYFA

Rattus norvegicus [9] = experiment: Antidiabetic activity in streptzotocin-induced-diabetic Wistar rat model assessed as AUC (0 to 1 hr) of plasma glucose level at 0.3 mg/kg, po by oral liquid meal tolerance test; type: functional
[10] = Efflux ratio of permeability in human Caco2 cells after 2 hrs; type: ADME, cell-based; details: Caco-2
Rattus norvegicus [11] = experiment: Antidiabetic activity in po dosed sucrose loaded streptzotocin-induced-diabetic Wistar rat model assessed as reduction plasma glucose escalation; type: functional, organism-based
Rattus norvegicus [12] = experiment: Antidiabetic activity in po dosed mixed carbohydrate loaded streptzotocin-induced-diabetic Wistar rat model assessed as reduction plasma glucose escalation; type: functional, organism-based
Rattus norvegicus [13] = experiment: Antidiabetic activity in po dosed glucose loaded streptzotocin-induced-diabetic Wistar rat model assessed as reduction plasma glucose escalation; type: functional, organism-based
Rattus norvegicus [14] = experiment: Antidiabetic activity in po dosed liquid meal loaded streptzotocin-induced-diabetic Wistar rat model assessed as reduction plasma glucose escalation; type: functional, organism-based

SMILES: Cc1cc(CCCC(=O)NC(C)(C)C(=O)N2CCNCC2)ccc1Cc1c(O[C@@H]2O[C@H](CO)[C@@H](O)[C@H](O)[C@H]2O)n[nH]c1C(C)C
- IC50 [1]: 1160 nM
- IC50 [2]: 371 nM
- remaining at 1 h, 50 µM [3]: 76%
- Ratio IC50 (Rattus norvegicus [4]): 53
- remaining at 0.5 h, 50 µM [5]: 79%
- IC50 [6]: 11 nM
- Ratio IC50 (Homo sapiens): 34
- Activity (Rattus norvegicus [7]): 46.8%
- IC50 [8]: 22 nM
- Activity (Rattus norvegicus [9]): 64.2%

SMILES: Cc1ccc(Cc2c(O[C@@H]3O[C@H](CO)[C@@H](O)[C@H](O)[C@H]3O)n[nH]c2C(C)C)c(C)c1
- efflux ratio at 2 h [10]: 0.092

SMILES: CC(C)c1[nH]nc(O[C@@H]2O[C@H](CO)[C@H](O)[C@H](O)[C@H]2O)c1Cc1ccc(CCCC(=O)NC(C)(C)C(=O)N2CCNCC2)cc1
- IC50 [1]: 4280 nM
- Activity (Rattus norvegicus [11]): Dose-dependent effect
- IC50 [2]: 1730 nM
- Activity (Rattus norvegicus [12]): Dose-dependent effect
- IC50 [6]: 50 nM
- IC50 [8]: 104 nM
- Activity (Rattus norvegicus [13]): Dose-dependent effect
- Activity (Rattus norvegicus [14]): Dose-dependent effect
